Patent US20110262508A1, “ANTIMICROBIAL COMPOSITIONS, FORMULATIONS AND USES THEREOF” (priority 2007, published 2011)
Values after ≈ are worked out from the molar mass of the structure shown. Blank lines part the entries; values can stand above or below the compound they belong to. Peptide text beside a SMILES is read from it.

Experiments:
[1] = tested on: A. baumannii ATCC 19606, Acinetobacter spp. ATCC 17903, Acinetobacter spp. ATCC 19004, E. coli BL21, S. aureus, S. typhimurium AroA, P. aeruginosa, P. …; experiment: Antibacterial spectrum over the serial dilution panel (Table 6); type: cell-based; conditions: summary of Table 6
Procedure: Synthetic peptides were tested for their ability to inhibit bacterial growth in liquid culture. The peptides were added at a concentration of between about 5 μM and about 10 μM to individual wells of 96-deep-well dishes that contained liquid growth media freshly inoculated with one of the following bacteria: A. baumannii ATCC Accession No. 19606, Acinetobacter spp. ATCC 17903, Acinetobacter spp. ATCC 19004, Escherichia coli strain BL21, S. aureus, S. typhimurium strain AroA, P. aeruginosa or P. pneumotropica. After 5-6 hours of shaking at 37° C., growth was measured as absorbance at 595 nm. As a control, cultures were grown in the presence of 0.1% acetonitrile (i.e., the concentration present in 10 μM peptide).

[2] = tested on: A. baumannii; type: cell-based
Description: Broth dilution methods are e.g., described by Lorian (2007) In: Antibiotics in Laboratory Medicine, Fifth Edition; and In: Clinical and Laboratory Standards Institute, CLSI (formerly NCCLS), In: Methods for Dilution Antimicrobial Susceptibility Tests for Bacteria that Grow Aerobically—Approved Standard—Seventh Edition, CLSI document M7-A7, Villanova, Pa. (NCCLS; January 2006; Vol. 26 No. 2); and In: Clinical and Laboratory Standards Institute, CLSI (formerly NCCLS), Performance Standards for Antimicrobial Susceptibility Testing, Seventeenth Informational Supplement, M100-S17, Vol 27 No. 1 January 2007, all of which are incorporated herein by reference.
The present inventors used such methods to quantitate activity in vitro of antimicrobial peptides of the invention against bacterial isolates, including laboratory strains and 50 clinical isolates of A. baumannii, and S. aureus ATCC Accession No. 2992. Briefly, small volumes of broth are dispensed in sterile, plastic microtiter trays, and 100 μl of serially-diluted antimicrobial peptide (0.1-64 μg) and 100 μl test organism (approximately 1×10^5 C.F.U.), are added. Following aerobic incubation overnight at 35±2° C. Control samples lacked peptide (Growth control), or lacked peptide and bacteria (Sterility control). The trays were examined visually and the minimal inhibitory concentration (MIC) of peptide required to inhibit bacterial growth were determined. The minimum bactericidal concentration (MBC) was estimated by sub-culturing the wells for which no bacterial growth was visible to the naked eye, to thereby determine a concentration of antimicrobial that reduces the original inoculum by at least about 99.9%.

SMILES: CC[C@H](C)[C@H](NC(=O)[C@H](CCCCN)NC(=O)[C@H](CO)NC(=O)[C@H](CC(C)C)NC(=O)[C@@H](N)CC(C)C)C(=O)N[C@@H](CCCNC(=N)N)C(=O)N[C@@H](C)C(=O)N[C@@H](CC(C)C)C(=O)N[C@@H](CCCNC(=N)N)C(=O)N[C@@H](CCCNC(=N)N)C(=O)N[C@@H](CCCNC(=N)N)C(=O)N[C@@H](CCCNC(=N)N)C(=O)N[C@@H](Cc1ccccc1)C(=O)NCC(=O)N[C@@H](CCC(N)=O)C(=O)N[C@@H](CS)C(=O)N[C@@H](CC(=O)O)C(=O)N[C@@H](CCCCN)C(=O)N[C@@H](CCCNC(=N)N)C(=O)N[C@H](C(=O)N[C@@H](CO)C(=O)N[C@@H](Cc1ccc(O)cc1)C(=O)N[C@@H](CCCCN)C(=O)O)[C@@H](C)CC [Ac15] (H-LLSKIRALRRRRFGQCDKRISYK-OH; N-terminus and C-terminus assumed)
selectively inhibited growth of A. baumannii ATCC Accession No. 19606, Acinetobacter spp. ATCC 17903 and Acinetobacter spp. ATCC 19004 [1]: selectively inhibited growth

SMILES: CC[C@H](C)[C@H](NC(=O)[C@H](CC(C)C)NC(=O)[C@H](CCCNC(=N)N)NC(=O)[C@@H](NC(=O)[C@@H](NC(=O)[C@H](Cc1ccc(O)cc1)NC(=O)[C@H](CCCCN)NC(=O)[C@@H](N)Cc1ccc(O)cc1)[C@@H](C)CC)[C@@H](C)CC)C(=O)N[C@@H](CCC(=O)O)C(=O)N[C@@H](CC(N)=O)C(=O)N[C@@H](Cc1c[nH]c2ccccc12)C(=O)NCC(=O)N[C@@H](CCC(=O)O)C(=O)N[C@@H](CS)C(=O)NCC(=O)N[C@@H](CS)C(=O)N[C@@H](CCCNC(=N)N)C(=O)N[C@@H](Cc1ccc(O)cc1)C(=O)N[C@@H](CS)C(=O)N[C@@H](CCCNC(=N)N)C(=O)N[C@H](C(=O)N[C@H](C(=O)N[C@@H](CCCNC(=N)N)C(=O)O)C(C)C)[C@@H](C)CC [Ac18] (H-YKYIIRLIENWGECGCRYCRIVR-OH; N-terminus and C-terminus assumed)
selectively inhibited growth of S. aureus [1]: selectively inhibited growth

SMILES: CC[C@H](C)[C@H](NC(=O)[C@H](CC(C)C)NC(=O)[C@H](CCCNC(=N)N)NC(=O)[C@@H](NC(=O)[C@@H](NC(=O)[C@H](Cc1ccc(O)cc1)NC(=O)[C@H](CCCCN)NC(=O)[C@@H](N)Cc1ccc(O)cc1)[C@@H](C)CC)[C@@H](C)CC)C(=O)N[C@@H](CCC(=O)O)C(=O)N[C@@H](CC(N)=O)C(=O)N[C@@H](Cc1c[nH]c2ccccc12)C(=O)NCC(=O)N[C@@H](CCC(=O)O)C(=O)N[C@@H](CO)C(=O)NCC(=O)N[C@@H](CO)C(=O)N[C@@H](CCCNC(=N)N)C(=O)N[C@@H](Cc1ccc(O)cc1)C(=O)N[C@@H](CO)C(=O)N[C@@H](CCCNC(=N)N)C(=O)N[C@H](C(=O)N[C@H](C(=O)N[C@@H](CCCNC(=N)N)C(=O)O)C(C)C)[C@@H](C)CC [Ac19] (H-YKYIIRLIENWGESGSRYSRIVR-OH)
selectively inhibited growth of A. baumannii ATCC Accession No. 19606, Acinetobacter spp. ATCC 17903, Acinetobacter spp. ATCC 19004, and S. aureus [1]: selectively inhibited growth

MIC [2]: 15 µM (≈ 23.8 µg/mL)
MIC (μM) for non-amidated Peptide [2]: 15 µM
SMILES: CC(C)C[C@H](NC(=O)[C@H](CS)NC(=O)[C@@H](NC(=O)[C@@H](NC(=O)[C@H](Cc1ccccc1)NC(=O)[C@H](Cc1c[nH]c2ccccc12)NC(=O)[C@@H](NC(=O)[C@H](CC(C)C)NC(=O)[C@H](Cc1ccccc1)NC(=O)[C@H](CS)NC(=O)[C@@H](NC(=O)[C@H](CC(N)=O)NC(=O)[C@@H](N)Cc1c[nH]cn1)[C@@H](C)O)[C@@H](C)O)[C@@H](C)O)[C@@H](C)O)C(=O)O [Ac472] (H-HNTCFLTWFTTCL-OH; N-terminus and C-terminus assumed)
bactericidal or bacteriostatic against A. baumannii [2]: bacteriostatic
MBC (μM) ([2]; A. baumannii (Table 8), reduces original inoculum by at least about 99.9%): bacteriostat

MIC [2]: 40 µM (≈ 71.8 µg/mL)
SMILES: CC(C)C[C@H](NC(=O)[C@H](Cc1ccccc1)NC(=O)[C@H](CCCNC(=N)N)NC(=O)[C@H](CCCNC(=N)N)NC(=O)[C@H](CCCNC(=N)N)NC(=O)[C@H](CO)NC(=O)[C@H](CS)NC(=O)[C@@H](N)Cc1c[nH]c2ccccc12)C(=O)N[C@@H](C)C(=O)N[C@@H](CCCNC(=N)N)C(=O)N[C@@H](CS)C(=O)N[C@@H](Cc1c[nH]c2ccccc12)C(=O)N[C@@H](CCCNC(=N)N)C(=O)O [Ac496] (H-WCSRRRFLARCWR-OH; N-terminus and C-terminus assumed)
MBC [2]: 40 µM (≈ 71.8 µg/mL)
